Target: C-C chemokine receptor type 2 (Homo sapiens, UniProt P41597)
Assay: Binding Assay: MCP-1 Receptor Binding Assay in THP-1 Cells Human monocytic cell line THP-1 cells were obtained from American Type Culture Collection (Manassas, Va., USA). The THP-1 cells were grown in RPMI-1640 (RPMI: Roswell Park Memorial Institute Medium-cell culture growth media) supplemented with 10% fetal bovine serum in a humidified 5% CO2 atmosphere at 37 C. The cell density was maintained between 0.5x10^6 cells/mL.THP-1 (cells were incubated with 0.5 nM 125I labeled MCP-1 (Perkin-Elmer Life Sciences, Inc. Boston, Mass.) in the presence of varying concentrations of either unlabeled MCP-1 (R & D Systems, Minneapolis, Minn.) or test compound for 2 hours at 30 C. in a 96 well plate. Cells were then harvested onto a filter plate, dried, and 20 uL of Microscint 20 was added to each well. Plates were counted in a TopCount NXT, Microplate Scintillation & Luminescence Counter (Perkin-Elmer Life Sciences, Inc. Boston, Mass.).
Format: cell-based

Sequence of C-C chemokine receptor type 2 (P41597 whole entry): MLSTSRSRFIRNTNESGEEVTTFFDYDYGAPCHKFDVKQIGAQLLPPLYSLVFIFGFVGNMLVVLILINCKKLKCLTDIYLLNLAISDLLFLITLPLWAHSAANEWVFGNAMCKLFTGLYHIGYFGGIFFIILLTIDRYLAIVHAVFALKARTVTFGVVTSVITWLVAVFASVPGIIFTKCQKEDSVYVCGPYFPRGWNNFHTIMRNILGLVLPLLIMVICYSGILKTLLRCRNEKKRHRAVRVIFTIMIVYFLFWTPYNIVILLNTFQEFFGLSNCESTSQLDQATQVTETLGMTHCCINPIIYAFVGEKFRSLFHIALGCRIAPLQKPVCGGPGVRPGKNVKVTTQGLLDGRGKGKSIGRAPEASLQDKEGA

IC50: 1.1 µM
SMILES: CC1(C)Cc2cc(/C=C/C(=O)N3CCC(C(NC4CCC(c5c[nH]c6ccccc56)CC4)C(N)=O)CC3)ccc2O1 (stereo unspecified)

From ChEMBL document CHEMBL3638678, “4-substituted-cyclohexylamino-4-piperidinyl-acetamide antagonists of CCR2” (2014)
